The subject of data set [1] is anti-MG-KLH IgG. Description: Differential fluorescence spectra of dye mixed with IgG fraction. The format is binding, guinea-pig. The settings on record: for fluorescent ability upon mixing with anti-MG-KLH IgG: differential spectrum versus blank IgG. An excerpt: Since the differential spectra can remove problematic noises in the fluorescence analysis such as the fluorescence of a cell itself and Raman scattering of a solvent, it becomes possible to obtain the fluorescence spectrum purely pertaining to a sample.

Data set [2] relates to anti-MG-KLH IgG. Description: Absorption spectra of dye mixed with IgG fraction. The format is binding, guinea-pig. As for the experimental part: Concentrations of the aforementioned IgG fraction and MG solution were adjusted by dilution such that the protein concentration as described above and MG concentration would finally be 2 μM and 4 μM, respectively. Further, employing γ globulin of a guinea-pig as the control against anti-MG-KLH IgG (i.e., blank IgG), the absorption spectrum of a mixture of the IgG fraction and the MG solution was measured (See FIG. 3).

Data set [3] concerns IgG fraction derived from Guinea-pig 1. Briefly: Fluorescence of Malachite Green dilutions mixed with the IgG fraction. The format is binding. The settings on record: IgG fraction 0.2 μM, excitation 617 nm. As for the experimental part: A series of dilutions of Malachite Green in PBS solutions are prepared by adding to the solutions, the IgG fraction according to the invention which has been derived from Guinea-pig 1 in certain amounts (with the final concentration being 0.2 μM), and by adjusting concentrations of the dye within the range of 0-12 nM.
Fluorescence of these dilutions is measured with a Hitachi Model 850 fluorescence spectrophotometer under the following conditions: in a quartz cell of optical path length of 1.0 cm at the excitation side; an excitation wavelength of 617 nm; an emission wavelength of 650 nm; a band-pass width of 5 nm at both excitation and emission sides; High gain of a photomultiplier; a time constant of 1.5 sec; and a fluorescence integration time of 30 sec. Thus, a concentration-fluorescence intensity curve is prepared (See FIG. 5).
The fluorescence intensity is expressed as output values (i.e., arbitrary, relative units) of the fluorescence spectrophotometer.

Data set [4] can be described thus: Absorbance of Malachite Green dilutions in PBS at 617 nm. Format: physicochemical. The following applies: 1 cm path. As for the experimental part:
Malachite Green is dissolved in a phosphate-buffered saline (hereinafter referred to as “PBS”) to prepare a series of dilutions in the concentration range of 4-4,000 nM.
Absorbance at a wavelength of 617 nm in these dilutions is measured with a Hitachi Model 557 two wavelength spectrophotometer using a quartz cell with a 1 cm optical path length and PBS as the reference (See Table 1), and a concentration—absorbance curve is prepared (See FIG. 6).

For `CN(C)c1ccc(C(=N)c2ccc(N(C)C)cc2)cc1.Cl` [Auramine O], in the data set with anti-MG-KLH IgG [1], the “fluorescent ability upon mixing with anti-MG-KLH IgG” value is “manifests its fluorescent ability”. Besides, in the data set with anti-MG-KLH IgG [2], the “change of absorption intensity in anti-MG-KLH IgG mixed solution” value is listed as “decline in the absorption intensity” and the “shift of absorption spectrum in anti-MG-KLH IgG mixed solution” value is given as “shift toward longer wavelengths”.
Consider `CN(C)c1ccc(C(=C2C=CC(=[N+](C)C)C=C2)c2ccccc2)cc1` [Malachite Green], for which the “increase of fluorescence quantum yield” value in the data set on anti-MG-KLH IgG [1] (by the treatment according to the invention) is given as “over 1,000 times”. Moreover, the “fluorescent ability upon mixing with anti-MG-KLH IgG” value with anti-MG-KLH IgG [1] was “fluorescent”. Moreover, the “Fluorescence intensity (650 nm)” value is 0.026 arbitrary, relative units in data set [3] (0.04 nM dye); 0.034 arbitrary, relative units in data set [3] (0.12 nM dye); 0.066 arbitrary, relative units in data set [3] (0.4 nM dye); 0.18 arbitrary, relative units in data set [3] (1.2 nM dye); 0.487 arbitrary, relative units in data set [3] (4 nM dye); 1.22 arbitrary, relative units in data set [3] (12 nM dye). Also, in the data set on anti-MG-KLH IgG [2] (IgG 2 μM, MG 4 μM), the “shift of wavelength of absorption maximum to longer wavelength relative to dye alone” value is recorded as 6-7 nm. Further, the “Absorbance (617 nm)” value in data set [4] (4 nM in PBS) worked out at 0; in data set [4] (12 nM in PBS), 0; in data set [4] (40 nM in PBS) it was 0.002; in data set [4] (120 nM in PBS), 0.009; in data set [4] (400 nM in PBS) it was 0.036; in data set [4] (1200 nM in PBS), 0.132. Besides, the “Absorbance (617 nm)” value in data set [4] (4000 nM in PBS) was determined as 0.464.

Source of the values: US6780978B2, “Fluorescence-activating antisera and IgG fraction therefrom” (Hamamatsu Photonics, K.K., priority 1998, dated 2004).
